In paper PMC6789647, “α-Glucosidase Inhibitory Activity of Cycloartane-Type Triterpenes Isolated from Indonesian Stingless Bee Propolis and Their Structure–Activity Relationship” (Pharmaceuticals, 2019):

How the values were obtained:
α-glucosidase [1] = details: cited from earlier work
[2] = molecular target: α-glucosidase from Saccharomyces cerevisiae (Saccharomyces cerevisiae, UniProt P53341); experiment: Inhibitory activity assay for yeast α-glucosidase (pNPG substrate); format: biochemical
Protocol: The inhibitory activity of α-glucosidase from Saccharomyces cerevisiae (Sigma-Aldrich, Tokyo, Japan) of the isolation compounds was determined using a previously reported procedure with modifications. p-Nitrophenyl α-glucopyranoside (pNPG) (Sigma-Aldrich, Tokyo, Japan) was used as a substrate. Other chemicals used were of analytical grade. […] Then, 40 µL of 3 mM pNPG solution was added, and the mixture was incubated at 37 °C for 20 min. The reaction was stopped by adding a solution of Na2CO3 (0.1 M, 200 µL), and the absorbance (at 405 nm) of the resulting solution was measured via an Epoch microplate reader (Biotech, Tokyo, Japan). All experiments were performed in three independent replicates. The inhibition of isolated compounds on α-glucosidase was calculated as follows:(2) Inhibition (%)=(1−A1/A0)×100 where A0 is the absorbance of the control, and A1 is the absorbance of the propolis samples. The IC50 values were determined as the half-maximal inhibitory concentration of the inhibitor (isolated compound) which provides 50% inhibition.

[3] = test system: α-glucosidase from the rat small intestine; experiment: Inhibitory activity assay for rat intestinal α-glucosidase; format: biochemical; details: for IC50: rat small intestine α-glucosidase, means ± SEs, n = 3, ND: not detected, isolated compounds tested at 0.1–10 µg/mL
Protocol: In a centrifuge tube at 4 °C, 200 mg of rat intestine acetone granules (Sigma-Aldrich, Tokyo, Japan) was placed in 8 mL of physiological saline (0.9 g of NaCl was dissolved in 100 mL pure water). The resulting suspension was homogenized with sonication equipment (Branson, Danbury, CT, USA) for 60 s (ultrasonic treatment cycles: 50, output control: 5) in an ice bath. The resulting homogenate was centrifuged (14,400× g, −21 °C for 20 min) with a high-speed refrigerated centrifuge (Himac CR21N, Hitachi Koki Co, Ltd., Tokyo, Japan). The resulting supernatant was used as an enzyme preparation, and stored at −30 °C until use. Then the measurement of inhibitory activity of isolated compounds against α-glucosidase from the rat small intestine followed the method used to measure the activity of yeast enzymes (S. cerevisiae). The concentration of the isolated compounds used is 0.1–10 µg/mL (0.2–23 µM).

[4] = DPPH free radical scavenging activity; details: means ± SEs, n = 3; for DPPH IC50 / IC50: isolated compounds
Protocol: The antioxidative activities of the fractions were assayed for the scavenging of 2,2-diphenyl-1-picrylhydrazyl (DPPH) (Sigma-Aldrich, Darmstadt, Germany). Free radicals were assayed using a previously reported method [48] with some modifications. The fractions of EEP, isolated compounds and Trolox (Sigma-Aldrich, Darmstadt, Germany) were dissolved in methanol to make a 50 ppm solution. Each of the test sample solutions (0, 20, 40, 60, 80, and 100 µL) were added into a mixture (0.9 mL) of 0.4 mM DPPH solution, 20% methanol aqueous solution, and 0.2 M MES (2-(N-morpholino) ethanesulfonic acid) (Dojindo, Wako Junyaku Kogyo Co., Ltd., Osaka, Japan) buffer solution (1:1:1). The resulting mixtures were shaken on a vortex mixer and allowed to stand for 20 min. The absorbance of the remaining DPPH was measured with a microplate reader (Biotech, Tokyo, Japan) at 520 nm. […] The inhibitory concentration that results in 50% scavenging of DPPH radicals (IC50) was estimated based on the plot of inhibition versus the final concentration of the propolis samples. The results are expressed in µg Trolox Equivalents (TE) per mL.

α-glucosidase [5] = molecular target: α-glucosidase (Saccharomyces cerevisiae, UniProt P53341); experiment: Determination of inhibitory type by kinetic analysis (Lineweaver–Burk, Dixon plots); format: biochemical; details: for Inhibition Mode: Lineweaver–Burk plot, inhibitor 0, 0.2, 2 µg/mL, p-NPG substrate; for Ki’: mixed inhibition, affinity for enzyme–substrate
Protocol: Inhibitory mechanisms of isolated triterpenes against α-glucosidase at some concentrations (0, 0.2, and 2 µg/mL) were analyzed by the Lineweaver–Burk plot (Figure 2 and Figure 3).
The inhibition activity of isolated triterpenes against α-glucosidase was measured with different concentrations (0, 1, 2.5, 5, and 10 mM) of p-NPG as a substrate in the presence or absence of different concentrations (0, 0.2, and 2 µg/mL) of the compounds. The mode of inhibition was then determined by Lineweaver–Burk plot analysis, which was calculated using Michaelis–Menten kinetics. Inhibition constants (Ki) were determined by analysis of Dixon plots and plots of the Y-intercept of the Lineweaver–Burk plot versus the inhibitor [44, 49]. All data are expressed as means ± standard errors of triplicate determinations.

Chain of α-glucosidase (Saccharomyces cerevisiae, UniProt P53341) (P53341 whole entry): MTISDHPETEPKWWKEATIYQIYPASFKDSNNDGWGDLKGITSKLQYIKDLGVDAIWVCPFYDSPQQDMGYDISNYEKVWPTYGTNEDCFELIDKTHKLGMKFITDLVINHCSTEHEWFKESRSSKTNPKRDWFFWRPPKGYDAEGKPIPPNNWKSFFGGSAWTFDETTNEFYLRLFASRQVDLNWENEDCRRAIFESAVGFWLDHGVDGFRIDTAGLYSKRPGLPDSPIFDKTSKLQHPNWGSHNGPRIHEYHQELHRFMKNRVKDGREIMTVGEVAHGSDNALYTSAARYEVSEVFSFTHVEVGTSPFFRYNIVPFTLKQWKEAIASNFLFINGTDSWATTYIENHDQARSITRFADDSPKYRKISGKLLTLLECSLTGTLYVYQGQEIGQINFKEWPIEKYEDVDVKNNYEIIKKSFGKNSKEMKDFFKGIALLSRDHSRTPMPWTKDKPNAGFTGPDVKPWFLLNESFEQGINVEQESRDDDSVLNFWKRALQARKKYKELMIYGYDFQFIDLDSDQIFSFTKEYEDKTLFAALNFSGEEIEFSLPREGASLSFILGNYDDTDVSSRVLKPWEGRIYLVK
Chain of α-glucosidase from Saccharomyces cerevisiae (P53341 whole entry): as above

| Compound | inhibitory activity against α-glucosidase from the rat small intestine, in words [3] | DPPH IC50 [4] [mg/L] | IC50 [4] [µM] | Inhibition Mode (α-glucosidase [5]) | Ki’ (α-glucosidase [5]) [µM] | further results |
| --- | --- | --- | --- | --- | --- | --- |
| Oc1cc(O)c2c(c1)O[C@H](c1ccc(O)c(O)c1)[C@H](O)C2 [(–)-Epicatechin] | no inhibitory activity |  |  |  |  | inhibitory value on α-glucosidase (α-glucosidase [1]): around 96%; inhibitory activity against α-glucosidase from the yeast (S. cerevisiae), in words [2]: showed inhibitory activity |
| CC(C)=CCC[C@@H](C)[C@H]1CC[C@@]2(C)[C@@H]3CC[C@H]4C(C)(C)[C@@H](O)CC[C@@]45C[C@@]35CC[C@]12C [Cycloartenol (2), cycloartenol] |  | 120.21 ± 11.2 | 282 ± 26.3 | Uncompetitive |  | Inhibition Mode (α-glucosidase [5]; listed as 2): uncompetitive inhibition |
| C=C(CCC(C)C1CCC2(C)C3CCC4C(C)(C)C(O)CCC45CC35CCC12C)C(C)C(=O)O (centres unmarked) [Ambolic acid (5), ambolic acid] |  | 132.30 ± 13.9 | 281 ± 29.5 | Mixed inhibition | 4.58 | Inhibition Mode (α-glucosidase [5]; listed as 5): mixed-type inhibition |
| C/C(=C\CC[C@@H](C)[C@H]1CC[C@@]2(C)[C@@H]3CC[C@H]4C(C)(C)C(=O)CC[C@@]45C[C@@]35CC[C@]12C)C(=O)O [Mangiferonic acid (4), mangiferonic acid] |  | 17.16 ± 2.98 | 37.7 ± 6.55 | Mixed inhibition | 3.23 | Inhibition Mode (α-glucosidase [5]; listed as 4): mixed-type inhibition |
| C=C(CC[C@@H](C)[C@H]1CC[C@@]2(C)[C@@H]3CC[C@H]4C(C)(C)C(=O)CC[C@@]45C[C@@]35CC[C@]12C)C(C)C [24-methylenecycloartenone] |  |  |  |  |  | IC50 (α-glucosidase [1]; isolated from Schisandra chinensis, read-out: IC50 against α-glucosidase): 2.36 µM |
| Cc1c(C)c2c(c(C)c1O)CCC(C)(C(=O)O)O2 (centres unmarked) [Trolox, reference compound] |  | 7.17 ± 0.13 | 28.6 ± 0.52 |  |  | Antioxidant Activity IC50 ([4]; DPPH, propolis fractions P1 and P2): 6.76 ± 0.395 mg/L |
| C=C(CCC(C)C1CCC2(C)C3CCC4C(C)(C)C(=O)CCC45CC35CCC12C)C(C)C(=O)O (centres unmarked) [Ambonic acid (3), ambonic acid] |  | 42.45 ± 4.5 | 90.6 ± 9.6 | Mixed inhibition | 6.42 | Inhibition Mode (α-glucosidase [5]; listed as 3): mixed-type inhibition |
| C[C@H]1O[C@H](O[C@H]2[C@H](O)[C@@H](O)[C@@H](O[C@H]3[C@H](O)[C@@H](O)C(O)O[C@@H]3CO)O[C@@H]2CO)[C@H](O)[C@@H](O)[C@@H]1N[C@H]1C=C(CO)[C@@H](O)[C@H](O)[C@H]1O (some centres unmarked) [Acarbose] | very high inhibitory activity |  |  |  |  | inhibitory activity against α-glucosidase from the yeast (S. cerevisiae), in words [2]: no activity at all; IC50 [3]: 209 ± 0.96 µM |
| C/C(=C\CC[C@@H](C)[C@H]1CC[C@@]2(C)[C@@H]3CC[C@H]4C(C)(C)[C@@H](O)CC[C@@]45C[C@@]35CC[C@]12C)C(=O)O [Mangiferolic acid (1), mangiferolic acid] |  | 12.38 ± 3.0 | 27.1 ± 6.57 | Uncompetitive |  | Inhibition Mode (α-glucosidase [5]; listed as 1): uncompetitive inhibition |
| OCC(CO)N[C@H]1C[C@](O)(CO)[C@@H](O)[C@H](O)[C@H]1O [Voglibose] | very high inhibitory activity |  |  |  |  | IC50 [3]: 78.6 ± 1.27 µM |
